This is an account of results in article PMC4891657, “Orexin 2 Receptor Antagonism is Sufficient to Promote NREM and REM Sleep from Mouse to Man” (Scientific Reports, 2016).

The subject of series [1] is cataplexy. In words: Food-elicited cataplexy test (FECT). It is filed as in vivo, dog. To be noted: dogs, 20 mg/kg, 1 hour after administration. As for the experimental part:
A standard measure for quantifying narcolepsy with cataplexy in dogs is the food-elicited cataplexy test (FECT).
The FECT was performed essentially as described previously. After a 2-day vehicle run-in period, female dogs (n = 8; Marshall Farms) were treated with MK-1064 (20 mg/kg) or vehicle in a 1-day vehicle x 2-day drug crossover design. Daytime FECTs[32][43][44] with simultaneous video and electrocorticography (ECoG), electromyography (EMG), and electrooculography (EOG) recordings were conducted 1 hour post-dose. Following release into the test room, dogs were remotely monitored while consuming 10 evenly spaced, approximately 1-inch[2] balls of wet dog food (Pedigree® chunk beef). Video and ECoG/EOG/EMG recordings were evaluated for any signs of cataplexy (e.g., collapse, EMG attenuation, sudden-onset REM sleep; see Kushida et al.[43]) and the time needed to consume all 10 balls of food.

The test system of series [2] is somnolence / alertness. In words: Karolinska Sleepiness Scale and Bond and Lader VAS in healthy subjects. It is filed as in vivo, human. To be noted: all single doses greater than 5 mg. The procedure: In the ascending single-dose study, doses of MK-1064 ranging from 5 to 250 mg corresponded with dose-dependent changes in measured plasma levels (Fig. 6a). […] The greatest effects were observed between 1 and 4 hours, and effects greatly diminished 8 hours following treatment, consistent with the time course of plasma concentrations of MK-1064.
Figure 6 MK-1064 dose-dependently promotes somnolence and attenuates arousal in healthy human subjects. (a) Plasma concentration of MK-1064 over time following administration of single doses of MK-1064 5–250 mg. (b) Somnolence, as measured by the KSS, and (c) alertness, as measured by the Bond and Lader VAS, over time following administration of single doses of MK-1064 (5–250 mg) or placebo in healthy human subjects (N = 20).
During each treatment period, blood was collected for PK analysis pre-dose and at time points up to 72 hours post-dose. MK-1064 plasma concentrations were determined by reverse phase high-performance liquid chromatography and detected with tandem mass spectrometry. The lower limit of quantitation was 1 ng/mL and the linear calibration range was 1–1000 ng/mL. PK parameters were calculated with WinNonLin 5.2.1. Values below the assay limit of quantification were indicated with a zero value. […]

Series [3] deals with sleep. Description: Polysomnography in healthy male subjects. It is filed as in vivo, human. As for the experimental part:
In the PSG study, subjects underwent 8-hour PSG recording periods beginning 1 hour after nighttime administration of MK-1064 (50, 120 and 250 mg) or placebo. […] Dose-dependence of the effects of MK-1064, while not evaluated statistically, was most pronounced with regard to LPS, LREM and REM sleep, and to a lesser extent, TST and WASO sleep (Fig. 7b).
Figure 7 MK-1064 promotes sleep in healthy subjects. MK-1064 (50, 120 and 250 mg) or placebo were administered 1 hour prior to the normal resting phase in healthy subjects (N = 20), and PSG effects were monitored during the normal resting phase.
Twenty healthy male subjects between the ages of 18 and 45 years were recruited to a double-blind, randomized, 4-period, crossover study to evaluate the effects of single doses of MK-1064. Subjects were without a history of physical or mental illnesses, had no history of sleep abnormalities, and were not regularly taking medication. Subject inclusion required a sleep score ≤6 on the Pittsburgh Sleep Quality Index at the time of screening, and qualified subjects underwent a PSG screening prior to randomization to exclude those with latent sleep disturbances. In each of the 4 treatment periods, subjects were randomized to receive single doses of MK-1064 (50, 120, or 250 mg) or matching placebo according to a balanced crossover design (see Fig. 5). Briefly, 20 subjects were randomized to 4 panels (n = 5 each). Each panel then received each of the four treatments (placebo, 50, 120, 250 mg MK-1064) in 4 different study periods where each period allocated the 4 different treatments to the 4 different subject panels. Progression through each period rotated the 4 different treatments among the subject panels such that each panel ultimately received all 4 treatments. In all 4 study periods, subjects were admitted for a pre-dose habituation night. On the following treatment night, subjects were administered a single dose of study medication in a blinded manner approximately 1 hour before their habitual bedtime. Study medication was administered following a ≥4-hour fast. Dosing in different treatment periods was separated by a washout of at least 7 days for each subject. PSG recording commenced at 1 hour post-dose and continued during undisturbed sleep for 8 hours overnight. Visual scoring of each 30-sec epoch of PSG recording to wake or one of four sleep states (S1, S2, SWS, collectively referred to as NREM, and REM) was performed according to standard and established Rechtschaffen and Kales criteria. Obtained scores were then used to calculate efficacy assessment measures including latency to persistent sleep (LPS) (min), wake after sleep onset (WASO) (min), sleep efficiency (SE) (%), and total sleep time (TST) (min). LPS is the time from lights off to the first epoch of 20 consecutive epochs of non-wake stage; WASO is the time in wake stage between the onset of persistent sleep and the time of lights on; and SE is the proportion of time between lights off and lights on that was spent in sleep. In addition to efficacy parameters, latency to REM (LREM) (min), equal to the time from lights off to the first epoch of REM, and the proportion (%) of TST spent in NREM and REM were calculated. Estimation of the effects of treatment on PSG endpoints relative to placebo, including the calculation of confidence intervals and p-values were done using a mixed-effect statistical model typical for crossover studies. Specifically, logarithm of an analyzed endpoint represented the response variable, and treatment dose, treatment period, and carryover effect were fixed-effect explanatory variables. Subject effect was the random effect with the within-subject covariance assumed to be of the unstructured type. […] SAS/STAT® Version 9.3 software (SAS Institute, Cary NC) was used in the analysis.

Details of series [4]: method as in PMID 24376006. To be noted: dogs ref 29; cited from earlier work.
[5] abbreviates: healthy subjects, two highest doses (120, 250 mg).

Entries after “also recorded” stand apart in the source; their conditions may differ.

As to `COc1ccc(CNC(=O)c2cc(-c3cncc(Cl)c3)cnc2-c2ccccn2)nc1OC` [MK-1064, 5″-chloro-N-[(5,6-dimethoxypyridin-2-yl)methyl]-2,2′:5′, 3″-terpyridine-3′-carbo xamide], the “cataplectic episodes in FECT” value in series [1] is “no cataplectic episodes; also recorded: cataplexy was not observed”. The “mean time to complete the FECT” value in series [1] (not significantly different from vehicle) was found to be 37.8 s. Moreover, the “subject-reported somnolence (KSS) and drowsiness (alertness VAS)” value in series [2] was “Dose-dependent increases”. The “time spent in Stage 2” value in series [3] (healthy subjects, 120 mg) is reported as “significant increase”. In addition, the “LPS as fraction of placebo response” value in series [3] (healthy subjects, 50, 120 and 250 mg (all doses)) is “significant reductions”. Besides, in series [3] (setting [5]), the “WASO as fraction of placebo response” value was “significant reductions” and the “reduction in LREM versus placebo” value is “statistically significant”. Moreover, in series [3] (healthy subjects, two lower doses (50, 120 mg)), the NREM sleep result is recorded as “increases in NREM sleep”. For the same compound, the “time spent in Stage 1 and SWS” value in series [3] (healthy subjects, vs placebo) is given as “not significantly different from placebo”. Besides, in series [4], the “minimum plasma concentration needed for sleep-promoting efficacy” value was 0.028 µM.
